Where two headings read alike, the source gives them in different places.
System: SARS-CoV-2 strain USA-WA1/2020
Test: microbe, parasite or virus in culture
Assay type: cell-based
Conditions: Severe acute respiratory syndrome coronavirus 2, HeLa-ACE2, 24 h, HeLa-ACE2 cells, SARS-CoV-2 infection, 24 h, read-out: EC50, uM (Hela)

SMILES | EC50 (class symbols) | EC50 | other results
CC(C)(F)c1cc(C(=O)N2C=C3C[C@@H]3[C@H]2C(=O)N[C@@H](C[C@@H]2CCNC2=O)C(=O)COC(F)(F)F)no1 [Compound 501, (1S,2S)-3-(5-(2-fluoropropan-2-yl)isoxazole-3-carbonyl)-N-((S)-3-oxo-1-((S)-2-oxopyrrolidin-3-yl)-4-(trifluoromethoxy)butan-2-yl)-3-azabicyclo[3.1.0]hex-4-ene-2-carboxamide] | – | – | EC50 (given as bound): > 1 µM
CC(C)C[C@H](NC(=O)OCCc1cccc(Cl)c1)C(=O)N[C@@H](C[C@@H]1CCNC1=O)C(=O)COc1c(F)c(F)cc(F)c1F [Compound 138, 3-chlorophenethyl ((S)-4-methyl-1-oxo-1-(((S)-3-oxo-1-((S)-2-oxopyrrolidin-3-yl)-4-(2,3,5,6-tetrafluorophenoxy)butan-2-yl)amino)pentan-2-yl)carbamate] | – | – | EC50 (cells given as a bound): > 1 µM
O=C1NCC[C@H]1C[C@H](NC(=O)[C@@H]1CC2(CC2)CN1C(=O)C12CC(C(F)(F)F)(CO1)C2)C(=O)COC(F)(F)F [Compound 317, (6S)—N-[(2S)-3-oxo-1-[(3S)-2-oxopyrrolidin-3-yl]-4-(trifluoromethoxy)butan-2-yl]-5-[4-(trifluoromethyl)-2-oxabicyclo[2.1.1]hexane-1-carbonyl]-5-azaspiro[2.4]heptane-6-carboxamide] | < 0.05 µM | – | –
O=C1NCC[C@H]1C[C@H](NC(=O)[C@@H]1C[C@H]2C[C@H]2N1C(=O)[C@H]1CCCO1)C(=O)COC(F)(F)F [Compound 303, (1R,3S,5R)-N-((S)-3-oxo-1-((S)-2-oxopyrrolidin-3-yl)-4-(trifluoromethoxy)butan-2-yl)-2-((R)-tetrahydrofuran-2-carbonyl)-2-azabicyclo[3.1.0]-hexane-3-carboxamide] | – | – | EC50 (bound printed in cell): > 1 µM
[2H]C([2H])([2H])C([2H])(C([2H])([2H])[2H])C([2H])([2H])C([2H])([2H])C(=O)N1CC2(CC2)C[C@H]1C(=O)N[C@@H](C[C@@H]1CCNC1=O)C(=O)COC(F)(F)F [Compound 734, (S)-5-(4-(methyl-d3)pentanoyl-2,2,3,3,4,5,5,5-d8)-N-((S)-3-oxo-1-((S)-2-oxopyrrolidin-3-yl)-4-(trifluoromethoxy)butan-2-yl)-5-azaspiro[2.4]heptane-6-carboxamide] | – | < 0.05 µM | –
Cc1ccccc1NC(=O)C(=O)N[C@@H](CC(C)C)C(=O)N[C@@H](C[C@@H]1CCNC1=O)C(=O)COc1c(F)c(F)cc(F)c1F [Compound 37, N1-((S)-4-methyl-1-oxo-1-(((S)-3-oxo-1-((S)-2-oxopyrrolidin-3-yl)-4-(2,3,5,6-tetrafluoro-phenoxy)butan-2-yl)amino)pentan-2-yl)-N2-(o-tolyl)oxalamide] | < 0.05 µM | – | –
CC(C)C[C@@H](O)C(=O)N[C@@H](CC(C)C)C(=O)N[C@@H](C[C@@H]1CCNC1=O)C(=O)COC(F)(F)F [Compound 767, (R)-2-hydroxy-4-methyl-N-((S)-4-methyl-1-oxo-1-(((S)-3-oxo-1-((S)-2-oxopyrrolidin-3-yl)-4-(trifluoromethoxy)butan-2-yl)amino)pentan-2-yl)pentanamide] | – | 0.2 to 0.5 µM | –
CC(C)CC(C)(C)C(=O)N1CC2(CC2)C[C@H]1C(=O)N[C@@H](C[C@@H]1CCNC1=O)C(=O)COC(F)(F)F [Compound 625, (S)-N-((S)-3-oxo-1-((S)-2-oxopyrrolidin-3-yl)-4-(trifluoromethoxy)butan-2-yl)-5-(2,2,4-trimethylpentanoyl)-5-azaspiro[2.4]heptane-6-carboxamide] | – | < 0.05 µM | –
CC(C)(C)C[C@H](NC(=O)C(=O)NC12CC(F)(C1)C2)C(=O)N[C@@H](C[C@@H]1CCNC1=O)C(=O)COC(F)(F)F [Compound 226, N1-((S)-4,4-dimethyl-1-oxo-1-(((S)-3-oxo-1-((S)-2-oxopyrrolidin-3-yl)-4-(trifluoromethoxy)butan-2-yl)amino)pentan-2-yl)-N2-(3-fluorobicyclo[1.1.1]-pentan-1-yl)oxalamide] | < 0.05 µM | – | –
CC(C)C[C@H](NC(=O)C(=O)Nc1c(C(C)C)cccc1C(C)C)C(=O)N[C@@H](C[C@@H]1CCNC1=O)C(=O)COC(F)(F)F [Compound 159, Nl-(2,6-diisopropylphenyl)-N2-((S)-4-methyl-1-oxo-1-(((S)-3-oxo-1-((S)-2-oxopyrrolidin-3-yl)-4-(trifluoromethoxy)butan-2-yl)amino)pentan-2-yl)oxalamide] | < 0.05 µM | – | –
CC(C)C[C@H](NC(=O)C(=O)Nc1ccccc1F)C(=O)N[C@@H](C[C@@H]1CCNC1=O)C(=O)COc1ccnc(C(F)(F)F)n1 [Compound 788, N^1-(2-fluorophenyl)-N^2—((S)-4-methyl-1-oxo-1-(((S)-3-oxo-1-((S)-2-oxopyrrolidin-3-yl)-4-((2-(trifluoromethyl)pyrimidin-4-yl)oxy)butan-2-yl)amino)pentan-2-yl)oxalamide] | – | 0.2 to 0.5 µM | –
CCC(OC)C(=O)N1CC2(CC2)C[C@H]1C(=O)N[C@@H](C[C@@H]1CCNC1=O)C(=O)COC(F)(F)F (stereo partly drawn) [Compound 758, (6S)-5-(2-methoxybutanoyl)-N-((S)-3-oxo-1-((S)-2-oxopyrrolidin-3-yl)-4-(trifluoromethoxy)butan-2-yl)-5-azaspiro[2.4]heptane-6-carboxamide] | – | 0.2 to 0.5 µM | –
O=C(N[C@@H](Cc1ccccc1)C(=O)N[C@@H](C[C@@H]1CCNC1=O)C(=O)COC(F)(F)F)c1cc(-c2ccccc2F)on1 [Compound 460, 5-(2-fluorophenyl)-N-((S)-1-oxo-1-(((S)-3-oxo-1-((S)-2-oxopyrrolidin-3-yl)-4-(trifluoromethoxy)butan-2-yl)amino)-3-phenylpropan-2-yl)isoxazole-3-carboxamide] | – | < 0.05 µM | –
CC(C)C[C@H](NC(=O)c1ccc2c(c1)OCO2)C(=O)N[C@@H](C[C@@H]1CCNC1=O)C(=O)COc1c(F)c(F)cc(F)c1F [Compound 24, N-((S)-4-methyl-1-oxo-1-(((S)-3-oxo-1-((S)-2-oxopyrrolidin-3-yl)-4-(2,3,5,6-tetrafluorophenoxy)butan-2-yl)amino)pentan-2-yl)benzo[d][l,3]dioxole-5-carboxamide] | 0.2 to 0.5 µM | – | –
O=C(Nc1ccccc1F)C(=O)N[C@@H](Cc1ccc(F)c(F)c1)C(=O)N[C@@H](C[C@@H]1CCNC1=O)C(=O)COC(F)(F)F [Compound 589, N1-((S)-3-(3,4-difluorophenyl)-1-oxo-1-(((S)-3-oxo-1-((S)-2-oxopyrrolidin-3-yl)-4-(trifluoromethoxy)butan-2-yl)amino)propan-2-yl)-N2-(2-fluorophenyl)oxalamide] | – | 0.05 to 0.2 µM | –
CC(C)C[C@H](NC(=O)O[C@H]1CO[C@H]2OCC[C@H]21)C(=O)N[C@@H](C[C@@H]1CCNC1=O)C(=O)COc1c(F)c(F)cc(F)c1F [Compound 150, (3R,3aS,6aR)-hexahydrofuro[2,3-b]furan-3-yl ((S)-4-methyl-1-oxo-1-(((S)-3-oxo-1-((S)-2-oxopyrrolidin-3-yl)-4-(2,3,5,6-tetrafluorophenoxy)butan-2-yl)amino)pentan-2-yl)carbamate] | 0.2 to 0.5 µM | – | –
O=C1NCC[C@H]1C[C@H](NC(=O)[C@@H]1CC2(CC2)CN1C(=O)C1(O)CCCCC1)C(=O)COC(F)(F)F [Compound 424, (S)-5-(l-hydroxycyclohexane-1-carbonyl)-N-((S)-3-oxo-1-((S)-2-oxopyrrolidin-3-yl)-4-(trifluoromethoxy)butan-2-yl)-5-azaspiro[2.4]heptane-6-carboxamide] | – | 0.05 to 0.2 µM | –
O=C1NCC[C@H]1C[C@H](NC(=O)[C@@H]1CC2(CC2)CN1C(=O)C(O)(c1ccccc1)C(F)(F)F)C(=O)COC(F)(F)F (stereo partly drawn) [Compound 681, (6S)-N-((S)-3-oxo-1-((S)-2-oxopyrrolidin-3-yl)-4-(trifluoromethoxy)butan-2-yl)-5-(3,3,3-trifluoro-2-hydroxy-2-phenylpropanoyl)-5-azaspiro[2.4]heptane-6-carboxamide] | – | 0.05 to 0.2 µM | –
CC(C)(C)NC(=O)C(=O)N1CC2(CCCCC2)CC1C(=O)N[C@@H](C[C@@H]1CCNC1=O)C(=O)COC(F)(F)F (stereo partly drawn) [Compound 531, 2-(2-(tert-butylamino)-2-oxoacetyl)-N-((S)-3-oxo-1-((S)-2-oxopyrrolidin-3-yl)-4-(trifluoromethoxy)butan-2-yl)-2-azaspiro[4.5]decane-3-carboxamide] | – | < 0.05 µM | –
CC(C)(O)CC(=O)N1CC2(CC2)C[C@H]1C(=O)N[C@@H](C[C@@H]1CCNC1=O)C(=O)COC(F)(F)F [Compound 717, (S)-5-(3-hydroxy-3-methylbutanoyl)-N-((S)-3-oxo-1-((S)-2-oxopyrrolidin-3-yl)-4-(trifluoromethoxy)butan-2-yl)-5-azaspiro[2.4]heptane-6-carboxamide] | – | 0.05 to 0.2 µM | –
CC(C)C[C@H](NC(=O)C(=O)NC(C)(C)C)C(=O)N[C@@H](C[C@@H]1CCNC1=O)C(=O)COc1c(F)c(F)cc(F)c1F [Compound 100, N1-(tert-butyl)-N2-((S)-4-methyl-1-oxo-1-(((S)-3-oxo-1-((S)-2-oxopyrrolidin-3-yl)-4-(2,3,5,6-tetrafluorophenoxy)butan-2-yl)amino)pentan-2-yl)oxalamide] | 0.05 to 0.2 µM | – | –
CC(C)C[C@H](NC(=O)C(=O)N1CCCc2ccccc21)C(=O)N[C@@H](CC1CCNC1=O)C(=O)COC(F)(F)F (stereo partly drawn) [Compound 196, (2S)-2-(2-(3,4-dihydroquinolin-1(2H)-yl)-2-oxoacetamido)-4-methyl-N-((2S)-3-oxo-1-(2-oxopyrrolidin-3-yl)-4-(trifluoromethoxy)butan-2-yl)pentanamide] | < 0.05 µM | – | –
O=C(NCC(F)(F)F)C(=O)N[C@@H](CC1CC1)C(=O)N[C@@H](C[C@@H]1CCNC1=O)C(=O)COC(F)(F)F [Compound 517, N1-((S)-3-cyclopropyl-1-oxo-1-(((S)-3-oxo-1-((S)-2-oxopyrrolidin-3-yl)-4-(trifluoromethoxy)butan-2-yl)amino)propan-2-yl)-N2-(2,2,2-trifluoroethyl)oxalamide] | – | < 0.05 µM | –

— US11708348B2, “Protease inhibitors for treatment of coronavirus infections” (The Scripps Research Institute, priority 2021, dated 2023)
